{"source": "patent US20230190743A1", "about": "“TREATMENT WITH ILEAL BILE ACID TRANSPORTER (IBAT) INHIBITORS FOR INCREASED EVENT-FREE SURVIVAL (EFS)” (Mirum Pharmaceuticals, Inc., priority 2021, published 2023)", "format_in_all_cases": "in vivo, human", "key": {"[1]": {"test_system": "children with ALGS", "test": "ICONIC study, correlation of pruritus intensity (ItchRO) with cholestasis biomarkers and quality of life", "source_text": "This study evaluates how change in pruritus intensity correlates with change in cholestasis biomarkers in children with ALGS receiving maralixibat (ICONIC study; NCT02160782, described above). The goal of the present study is to characterize correlations between pruritus, as measured by the Itch-Reported Outcome (ItchRO) Observer tool, and multiple parameters, including sBA and sBA subspecies, autotaxin (ATX), and quality of life measures following maralixibat treatment in children with ALGS. Twenty-nine of the 31 enrolled participants completed 48 weeks of treatment, with 27 evaluated for this analysis."}, "[2]": {"test_system": "patients with PFIC due to BSEP deficiency", "test": "Longitudinal serum bile acid profiling by UHPLC-MS/MS in INDIGO patients", "description": "Total and individual serum BAs (sBA) including the major sub-species of TCA, TUDCA, TCDCA, TDCA, TLCA, GCA, GUDCA, GCDCA, GDCA, GLCA, CA, UDCA, CDCA, DCA, LCA and 7α-hydroxy-4-cholesten-3-one (sterol-C4), a surrogate marker for BA synthesis, were measured using a validated ultraperformance liquid chromatography coupled with tandem mass spectrometry (UHPLC-MS/MS) assay. The internal standards, a cocktail of deuterium labeled standards were added to serum, calibrators and QC samples. sBA were extracted and separated on a Kinetex C18 (2.6 μm, 100×3.0 mm) column (Phenomenex, Torrance, Calif.) with gradient elution. Quantification of individual sBA was achieved by multiple reaction monitoring (MRM) of selected transitions. Total C24 bile acid concentrations were calculated from the sum of individual species. These assays were applied to the analysis of serum from 19 patients with genetically confirmed PFIC due to BSEP deficiency (open-label phase 2 INDIGO trial; NCT02057718) treated with MRX. Changes in the composition of sBA associated with pruritus improvement measured with the Itch Reported Outcome Observer (ItchRO[Obs]) score were monitored at intervals over 72 weeks, with pruritus responders, defined as >1 scale reduction, compared with nonresponders. Linear mixed model framework was also used to model longitudinal profiles of sBA and pruritus reduction over time."}, "[3]": {"test_system": "patients with ALGS", "test": "Phase 2 ICONIC trial, 48-week HRQoL analysis by ItchRO treatment response", "design": "key to Beta, ItchRO treatment response at week 48 Yes vs No, PedsQL Generic Core Scale / Beta, ItchRO treatment response at week 48 Yes vs No, Family Impact Scale / Beta, ItchRO treatment response at week 48 Yes vs No, Multidimensional Fatigue Scale: regression beta in HRQoL score points (0-100 scale), responders vs not", "description": "A retrospective analysis was performed of 48-week data from the Phase 2 ICONIC trial, a study with a 4-week double-blind, placebo-controlled, randomized drug withdrawal period in patients with ALGS. Patients had moderate to severe pruritus as measured using a validated caregiver-reported Itch Reported Outcome (ItchRO) severity assessment tool (0=none to 4=very severe). Clinically meaningful pruritus response was defined as a ≥1 point reduction in the ItchRO, from baseline to week 48. HRQoL was assessed using the Pediatric Quality of Life Inventory Generic Core (PedsQL; 0-100 scale, 100=best quality of life), Family Impact (FI), and Multidimensional Fatigue (MF) scale scores, and were collected via caregiver. The minimal clinically important difference (MCID) for the HRQoL assessments is 5 points. A subset of individual items from the HRQoL scales were also independently selected for assessment with treatment response. HRQoL scores and selected items were assessed at baseline and week 48 and stratified by treatment response status. P-values were calculated using t-tests or ANOVAs. Multivariate linear regression models were used to assess the relationship between the mean change from baseline in HRQoL score (dependent variable) and an indicator for treatment response (independent variable), adjusting for baseline HRQoL. Adjustment for additional baseline covariates was also explored for the following variables: age, gender, bilirubin, rifampicin use, height z-score, weight z-score, ItchRO, and serum bile acid."}}, "note": "Where “and” joins values, the source holds several entries; their conditions need not be identical. Equal values may be shown once.", "data": [{"smiles": "CCCCC1(CCCC)CS(=O)(=O)c2ccc(N(C)C)cc2[C@@H](c2ccc(OCc3ccc(C[N+]45CCN(CC4)CC5)cc3)cc2)[C@H]1O", "note": "[maralixibat]", "values": [{"measurement": "overall average ItchRO score reduction", "setting": "[1]; at week 48", "result": 1.6, "unit": "points"}, {"measurement": "ItchRO score reduction of the one participant who normalized", "setting": "[1]; one participant", "result": "−3.5", "unit": "points"}, {"measurement": "pruritus, using ItchRO and CSS scores", "setting": "[1]; result in words", "result": "significant and clinically meaningful improvements in pruritus"}, {"measurement": "Change in ItchRO score (points)", "setting": "[1]; sBA reduction (%) 50, N 8", "result": "−1.90", "unit": "points"}, {"measurement": "Change in ItchRO score (points)", "setting": "[1]; sBA reduction (%) 60, N 8", "result": "−2.12", "unit": "points"}, {"measurement": "Change in ItchRO score (points)", "setting": "[1]; sBA reduction (%) 70, N 6", "result": "−2.31", "unit": "points"}, {"measurement": "Change in ItchRO score (points)", "setting": "[1]; sBA reduction (%) 80, N 3", "result": "−2.79", "unit": "points"}, {"measurement": "Change in ItchRO score (points)", "setting": "[1]; sBA reduction (%) 90, N 1", "result": "−2.71", "unit": "points"}, {"measurement": "reduction from baseline in total sBA, pruritus responders vs nonresponders", "setting": "[2]; longitudinal data, p<0.05, result in words", "result": "significantly greater"}, {"measurement": "patients who met the pruritus-response criteria (>1 scale reduction ItchRO[Obs])", "setting": "[2]; of the 19 patients, over 72 weeks", "result": 11, "unit": "patients"}, {"measurement": "proportion of unconjugated BA", "setting": "[2]; pruritus nonresponders, p=0.09", "result": "0.61±0.24", "unit": "%"}, {"measurement": "proportion of unconjugated BA", "setting": "[2]; pruritus responders", "result": "9.84±4.87", "unit": "%"}, {"measurement": "HRQoL at Week 48 (mean ± SD), Family Impact Scale", "setting": "[3]; ItchRO Non-Responders", "result": "54.7 ± 20.0"}, {"measurement": "HRQoL at Week 48 (mean ± SD), Multidimensional Fatigue Scale", "setting": "[3]; ItchRO Non-Responders", "result": "64.2 ± 15.1"}, {"measurement": "HRQoL at Week 48 (mean ± SD), PedsQL Generic Core Scale", "setting": "[3]; ItchRO Non-Responders", "result": "62.4 ± 14.5"}, {"measurement": "HRQoL change from baseline to Week 48 (mean ± SD), Family Impact Scale", "setting": "[3]; ItchRO Non-Responders", "result": "3.9 ± 7.8"}, {"measurement": "HRQoL change from baseline to Week 48 (mean ± SD), Multidimensional Fatigue Scale", "setting": "[3]; ItchRO Non-Responders", "result": "−3.1 ± 19.8"}, {"measurement": "HRQoL change from baseline to Week 48 (mean ± SD), PedsQL Generic Core Scale", "setting": "[3]; ItchRO Non-Responders", "result": "1.2 ± 11.1"}, {"measurement": "HRQoL at Week 48 (mean ± SD), Family Impact Scale", "setting": "[3]; ItchRO Responders", "result": "73.9 ± 19.6"}, {"measurement": "HRQoL at Week 48 (mean ± SD), Multidimensional Fatigue Scale", "setting": "[3]; ItchRO Responders", "result": "76.2 ± 15.1"}, {"measurement": "HRQoL at Week 48 (mean ± SD), PedsQL Generic Core Scale", "setting": "[3]; ItchRO Responders", "result": "70.4 ± 15.7"}, {"measurement": "HRQoL change from baseline to Week 48 (mean ± SD), Family Impact Scale", "setting": "[3]; ItchRO Responders", "result": "17.8 ± 23.4"}, {"measurement": "HRQoL change from baseline to Week 48 (mean ± SD), Multidimensional Fatigue Scale", "setting": "[3]; ItchRO Responders", "result": "25.8 ±23.0"}, {"measurement": "HRQoL change from baseline to Week 48 (mean ± SD), PedsQL Generic Core Scale", "setting": "[3]; ItchRO Responders", "result": "11.6 ± 20.3"}, {"measurement": "Beta, ItchRO treatment response at week 48 Yes vs No, Multidimensional Fatigue Scale", "setting": "[3]; multivariate regression, adjusted for baseline HRQoL, N = 21, CI −2.49, 30.32", "result": 13.92}, {"measurement": "Beta, ItchRO treatment response at week 48 Yes vs No, Family Impact Scale", "setting": "[3]; multivariate regression, adjusted for baseline HRQoL, N = 26, CI 1.01, 32.68", "result": 16.85}, {"measurement": "Beta, ItchRO treatment response at week 48 Yes vs No, PedsQL Generic Core Scale", "setting": "[3]; multivariate regression, adjusted for baseline HRQoL, N = 27, CI −3.86, 21.38", "result": 8.76}, {"measurement": "HRQoL change from baseline to week 48 across all scales", "setting": "[3]; non-responders, result in words", "result": "No clinically meaningful change"}, {"measurement": "average increase of Family Impact score, responders compared with non-responders", "setting": "[3]; over the 48 weeks, controlling for baseline FI score", "result": "17 points and 16.9 points"}, {"measurement": "average increase of Multidimensional Fatigue total score, responders compared with non-responders", "setting": "[3]; over the 48 weeks, p=0.11", "result": 13.9, "unit": "points"}, {"measurement": "average increase of PedsQL Generic Core Total Scale Score, responders compared with non-responders", "setting": "[3]; over the 48 weeks, p=0.19", "result": 8.8, "unit": "points"}, {"measurement": "Difference in change from baseline to week 48, HRQoL item Difficulty steeping through the night", "setting": "[3]; responders vs non-responders", "result": 52.9}, {"measurement": "Difference in change from baseline to week 48, HRQoL item Feeling tired", "setting": "[3]; responders vs non-responders", "result": 40.1}, {"measurement": "Difference in change from baseline to week 48, HRQoL item Feeling tired upon waking", "setting": "[3]; responders vs non-responders", "result": 72.4}, {"measurement": "Difference in change from baseline to week 48, HRQoL item Steeping a lot", "setting": "[3]; responders vs non-responders", "result": 55.2}, {"measurement": "Difference in change from baseline to week 48, HRQoL item Taking a lot of naps", "setting": "[3]; responders vs non-responders", "result": 40.4}, {"measurement": "Difference in change from baseline to week 48, HRQoL item Trouble sleeping", "setting": "[3]; responders vs non-responders", "result": 45.4}, {"measurement": "pruritus at week 48 of the ICONIC study", "setting": "[3]; result in words", "result": "significant improvements in pruritus"}, {"measurement": "patients who achieved ItchRO treatment response (≥1 point reduction)", "setting": "[3]; week 48, 27 patients", "result": 74, "unit": "%"}]}]}
